# Data published in patent US20260167614A1, “IDENTIFICATION OF SMALL MOLECULES THAT RECRUIT AND ACTIVATE RNASE L” (UNIVERSITY OF FLORIDA RESEARCH FOUNDATION, INCORPORATED, priority 2022, published 2026).
# Key:
# mature and pre-miR-21 = assay: RT-qPCR in RNase L-Targeting sgRNA (knock-down) MDA-MB-231 cells; assay type: cell-based; settings: RNase L knocked down by CRISPR
# Excerpt: Two CRISPR-modified MDA-MB-231 cell lines with either a scrambled control guide RNA (“Control sgRNA”; RNase L is expressed) or with an RNase L-targeting guide RNA (“RNase L-Targeting sgRNA”; RNase L protein abundance is knocked down) were used to complete these studies.
# Generation of the RNase L Knockdown MDA-MB-231 Cell Line. RNase L knockdown and control MDA-MB-231 cell lines were generated by CRISPR as previously described.^1 Briefly, lentiviral constructs containing Cas9 and gRNAs against RNASEL or a negative control were purchased from Transomic Technologies, Inc. [catalog #TEVH-1249025-pCLIP-ALL-hCMVPuro (KD+) and TELA1015 (KD−)] and packaged by transfecting HEK293T cells (ATCC, catalog #CRL-11268) using Lipofectamine 2000 transfection reagent (Invitrogen; catalog #11668500) and Cellecta packaging mix (Cellecta, catalog #CPCP-K2A) in Opti-MEM (Gibco, catalog #31985070). Virus supernatants were harvested 72 h post-transfection and filtered through a 0.45 μm PES filter (mdi Membrane Technologies Inc., catalog #SYPL0602MNXX204). […]
# RNA Isolation and Quantitative Real-Time Polymerase Chain Reaction (RT-qPCR). […] RT-qPCR was performed on a QuantStudio5™ Real-Time PCR Instrument (Applied Biosystems) using Power SYBR Green Master Mix (Applied Biosystems), and the resulting data were analyzed using the ΔΔCt method.
# [1] = system: MDA-MB-231 cells modified with CRISPR and a control guide RNA; assay: Global proteomics analysis via LC-MS/MS; assay type: cell-based
# Experimental: RiboTAC 7 was then assessed for its ability to affect protein levels by deactivation of a miR-21-mediated cancer circuit, i.e., derepression of PDCD4. […] Proteome-wide analysis was also completed to study the effects of 7 and a locked nucleic acid (LNA) oligonucleotide that targets miR-21-5p on the proteome. The concentrations tested of both provided similar activity (5 nM of 7 and 100 nM of the LNA), as assessed by their effect on PDCD4 levels, ˜40% enhancement. […] Neither modality affected proteins that are direct targets of miRNA let-7b-5p, further supporting that RiboTAC 7 is selectively deactivating a miR-21-mediated cancer circuit in cells (FIG. 11C-11D).
# Global proteomics analysis via LC-MS/MS. MDA-MB-231 cells modified with CRISPR and a control guide RNA were treated as described in “Cell Culture.” After treatment, the medium was removed, and the cells were washed with 1×DPBS. After washing, the cells were scraped from the culture plates, and the resulting suspension was centrifuged. Cell pellets were resuspended in 1×DPBS, and protein concentration was determined using a Pierce Micro BCA Protein Assay Kit (ThermoScientific). Urea (9 M in 100 mM NH4HCO3, pH 8) was added to a final concentration of 6 M to 30 μg lysate (15 μL prepared in 1×DPBS). […] Peptides were desalted over a self-packed C18 spin column, dried, and analyzed via LC-MS/MS. […]
compound,measurement,setting,value
"CNC(=O)[C@H](c1ccccc1)N(C)Cc1ccc(-c2cccc(-c3sccc3NC(=O)CCOCCOCCOCCC(=O)NCCN3CCN(c4ccc5nc(-c6c(N)c7c(F)cccc7[nH]c6=O)[nH]c5c4)CC3)c2)cc1 [RiboTAC 7, (S)—N-(2-(4-(2-(4-amino-5-fluoro-2-oxo-1,2-dihydroquinolin-3-yl)-1H-benzo[d]imidazol-6-yl)piperazin-1-yl)ethyl)-3-(2-(2-(3-((2-(4′-((methyl(2-(methylamino)-2-oxo-1-phenylethyl)amino)methyl)-[1,1′-biphenyl]-3-yl)thiophen-3-yl)amino)-3-oxopropoxy)ethoxy)ethoxy)propanamide]",effect on mature and pre-miR-21 levels,mature and pre-miR-21,inactive
same,abundance of miR-21-repressed proteins (cumulative distribution analysis),[1]; proteins encoded by mRNAs with a miR-21-5p binding site in 3′ UTR,statistically significant increase
same,proteins affected of the 3176 proteins detected,"[1]; proteome-wide, 7 and LNA at concentrations of similar activity",0.6%
